The subject of data set [1] is zebrafish liver cells (ZFL). Briefly: MTS assay, viability of ZFL cells. The class given is cell-based. The note with it: for viability of the ZFL cells: 24, 48, 72 h, dose- and time-dependent, ERL and NIL up to their maximum solubility; for cytotoxic effects in ZFL cells (MTS): concentrations up to 60 µM, up to 72 h exposure. The protocol: (§1) The viability of ZFL cells after 24, 48, and 72 h of exposure to TKIs was determined using the tetrazolium-based (MTS) assay (Cell Titer 96 AQueous Non-Radioactive Cell Proliferation Assay; Promega, Madison, WI, USA) as previously described by Novak et al.. Cells were seeded in 96-well microtiter plates (Corning Costar Corporation, New York, NY, USA) at a density of 7000 cells/well. […] Three independent experiments were performed, each with five replicates per treatment point. The statistical significance between the treated groups and the solvent control was determined by Student’s t-test using GraphPad Prism V6 (GraphPad Software, La Jolla, CA, USA). *** (p < 0.001)was considered statistically significant.

In data set [2] the test system is zebrafish liver cells (ZFL). Briefly: Propidium iodide live/dead staining by flow cytometry. The format is cell-based. The note with it: for percentage of PI negative cells: 72 h exposure, low concentrations. The method, then: Benzo[a]pyrene (50 μM), an indirect-acting genotoxic agent which requires metabolic activation for its genotoxic effects, and etoposide (0.17 μM), a direct-acting genotoxic agent, were selected as positive controls. After 72 h, floating and adherent cells were collected, resuspended in ice-cold 1x PBS, and immediately analyzed. Propidium iodide (PI) at a final concentration of 1 μg/mL was added to the cells 5 min before the start of measurements using the MACSQuant Analyzer 10 flow cytometer (Miltenyi Biotech, Bergisch Gladbach, Germany). MASCQuantifiy software (Miltenyi Biotech, Bergisch Gladbach, Germany) was used to quantify PI negative and positive cells. The experiments were repeated three times independently. Statistical significance between the treated groups and control was determined by one-way ANOVA with post hoc multiple comparison Dunett’s test using GraphPad Prism V6 (GraphPad Software, La Jolla, CA, USA). * p < 0.05 was considered statistically significant.
In general terms: In flow cytometry, cells or beads pass a laser one at a time.

Data set [3] deals with zebrafish liver cells (ZFL). Description: Alkaline comet assay (DNA strand breaks). The format is cell-based. The note with it: 24 h of exposure, non-cytotoxic concentrations. The method, then:
The induction of DNA strand breaks after TKI exposure was assessed by the comet assay according to Møller et al., with minor modifications. Briefly, ZFL cells were seeded at a density of 100,000 cells/well onto 12-well cell culture plates (Corning Costar Corporation, New York, NY, USA) and incubated for 24 h to attach. […] B(a)P (50 μM) was used as a positive control. After treatment, ZFL cells were trypsinized, collected, and centrifuged. Thirty μL of the cell suspension was mixed with 70 μL of 1% LMP agarose and placed on fully frosted slides pre-coated with 80 μL of 1% NMP agarose. Cells were then lysed for 1 h at 4 °C (2.5 M NaCl, 100 mM EDTA, 10 mM Tris, 1% Triton X-100, pH 10). DNA was subsequently denatured in electrophoresis buffer (1 mM EDTA, 300 mM NaOH, pH 13) for 20 min at 4 °C and slides were electrophoresed at 25 V (at 1 V/cm) for 20 min. Finally, nuclei were stained with GelRed (Biotium, Fremont, CA, USA). Images of 50 randomly selected nuclei per experimental point were acquired with the Eclipse 800 fluorescence microscope (Nikon, Tokyo, Japan) at 400× magnification using image analysis software (Comet Assay IV, Instem, UK). The statistical significance between control and treated groups was determined by one-way analysis of variance (ANOVA, Kruskal–Wallis) and Dunn’s multiple comparison test. * p < 0.05 was considered statistically significant.

Data set [4] relates to zebrafish liver cells (ZFL). Briefly: Micronucleus detection by flow cytometry. The format is cell-based. The note with it: 72 h; for MNi frequency: non-cytotoxic concentrations. The method, then: ZFL cells were seeded onto 24-well culture plates (Nunclon) at a density of 35,000 cells per well for 24 h. […] Etoposide (0.17 μM and 0.68 μM) was used as a positive control. After 72 h, cells were placed on ice for 20 min, and subsequently a 0.05 mg/mL EMA solution was added to each well. The cells were placed on ice for 30 min and exposed to light for photoactivation of the EMA fluorochrome. Afterwards, cells were washed and resuspended in lysis solution (0.584 mg/mL NaCl, 1 mg/mL sodium citrate, and 0.3 μL/mL Triton X-100) containing 0.2 μM SYTOX Green and 0.25 mg/mL RNAse A, and incubated for 1 h in the dark at 37 °C. After incubation, lysis solution (85.6 mg/mL sucrose and 15 mg/mL citric acid) containing 0.2 μM SYTOX Green was added to the wells of the plate and incubated for a further 30 min at room temperature in the dark. Cells were analyzed on the same day using MACSQuant Analyzer 10 flow cytometer. MASCQuantify Software 2.11. was used to analyze each sample, and the percentage of micronuclei was determined after the acquisition of a total of 20,000 gated nuclei events, excluding EMA-positive events. One-way ANOVA with post hoc multiple comparison Dunett’s test using GraphPad Prism V6 (GraphPad Software, Carlsbad, CA, USA) was carried out. * p < 0.05 and *** p < 0.0001 were considered statistically significant.

The next data set concerns H295R cells. Set-up: method as in Silveira et al. 28. The note with it: 10 µM; ref Silveira et al. 28; cited from earlier work.
Data set [5] is described as follows: MTS assay, viability of ZFL cells. The note with it: zebrafish, ZFL cells (zebrafish liver cell line), ZFL cells, read-out: IC50 for TKIs Cytotoxicity (95% Confidence Interval). The class given is cell-based, zebrafish. The method, then: as §1
Background: Tetrazolium dyes change colour on reduction, which living cells bring about.

In data set [6] the test system is zebrafish liver cells (ZFL). Description: Cell cycle analysis with flow cytometry. The format is cell-based. To be noted: 72 h; for effect on cell cycle progression: concentration-dependent, parallel decrease in S-phase fraction. The protocol:
ZFL cells were seeded onto T25 culture plates at a density of 450,000 cells for 24 h. […] The positive control was etoposide (0.17 μM), which is known to arrest cells in the G2/M phase of the cell cycle. After 72 h, cells were trypsinized (0.25% trypsin-EDTA) and washed with 1x PBS before fixation in 4% paraformaldehyde (PFA). For flow cytometric analysis, fixed cells were washed in cold 1x PBS and stained with Hoechst 33258 dye (diluted in 0.1% Triton X-100 1:500) as described by Stampar et al.. Flow cytometric measurements were performed using a MACSQuant Analyzer 10 and the experiment was repeated three times independently. Each time, 20,000 single cells were recorded per experimental point. The data obtained were analyzed using FlowJo V10 software (Becton Dickinson, Franklin Lakes, NJ, USA). Statistical analysis for cell cycle was performed by the two-way ANOVA with Fisher’s LSD test using GraphPad Prism V6 (GraphPad Software, La Jolla, CA, USA). * p < 0.05, ** (p < 0.01), *** (p < 0.001) were considered statistically significant.

For data set [7], the system named is certain target cancer cells. On the set-up: method as in ref 56, 57 (DAS), 58, 59 (REG). The note with it: in vitro; 57 (DAS), 58, 59 (REG); cited from earlier work.
Data set [8] deals with human lymphocytes or Chinese hamster ovary cells in vitro and rat bone marrow. The note with it: ref 11 (REG), 69 (ERL), 59 (NIL); cited from earlier work.
The test system of data set [9] is human lymphoblastoid TK6 cells. Set-up: method as in PMID 25111698. To be noted: up to 4.4 μM, 24 h, without and with metabolic activation; cited from earlier work.
For a further data set, the system named is HepG2 and HepaRG cells. Set-up: method as in PMID 28659801. The note with it: 20 µM highest concentration tested; cited from earlier work.
The test system of the next data set is H520 and H1975 cells. Set-up: method as in PMID 24447935. To be noted: highest concentration tested; cited from earlier work.
The next data set has as its system HepG2 cells. The note with it: 24 h of exposure; cited from earlier work.
A further data set relates to Huh-7 cells. The note with it: 24 h; cited from earlier work.
The test system of the next data set is A549 cells. Set-up: method as in Kryeziu et al. 65. The note with it: 20 µM, 6 h exposure; ref Kryeziu et al. 65; cited from earlier work.
The subject of data set [10] is human ovarian cancer cells (SKOV-3 cells). On the set-up: method as in Mak et al. 66. The note with it: 10 µM, 72 h; ref Mak et al. 66; cited from earlier work.
For data set [11], the system named is ovarian carcinoma A2780 cells. On the set-up: method as in PMID 28223694. To be noted: up to 10 μM, 24 h; cited from earlier work.
In a further data set the test system is Alium cepa. On the set-up: method as in doi:10.1508/cytologia.86.195. To be noted: dose-dependent; cited from earlier work.

`Cc1cn(-c2cc(NC(=O)c3ccc(C)c(Nc4nccc(-c5cccnc5)n4)c3)cc(C(F)(F)F)c2)cn1` [NIL, nilotinib]: in data set [1], the “viability of the ZFL cells” value is recorded as “did not affect cell viability” and the “cytotoxic effects in ZFL cells (MTS)” value is “no cytotoxic effects”. The “decrease of the percentage of PI negative cells” value in data set [2] (highest concentration tested, 72 h) was “approximately 20%”. The “concentration with statistically significant increase in percentage of tail DNA” value in data set [3] is at least 2 µM. In data set [4], the MNi frequency result is on record as “did not significantly increase”. Moreover, in the data set on H295R cells, the decrease of survival is recorded as 62.9%.
As for `COc1cc([C@@H]2c3cc4c(cc3[C@@H](O[C@@H]3O[C@@H]5CO[C@@H](C)O[C@H]5[C@H](O)[C@H]3O)[C@H]3COC(=O)[C@H]23)OCO4)cc(OC)c1O` [etoposide, Etoposide], the “MNi in representative dot plot” value in data set [4] (0.17 μM) is “increased amount of MNi”.
As for `CNC(=O)c1cc(Oc2ccc(NC(=O)Nc3ccc(Cl)c(C(F)(F)F)c3)c(F)c2)ccn1` [REG, regorafenib], the IC50 (in general, the concentration at which inhibition is half-maximal) at 24 h in [5] (24 h exposure) came out at 5.64 µM. Further, in data set [5] (48 h exposure), the IC50 at 48 h was 4.54 µM. Besides, the IC50 at 72 h in data set [5] (72 h exposure) came out at 3.59 µM. The “viability of the ZFL cells” value in data set [1] is reported as “reduced”. Also, in data set [2], the “percentage of PI negative cells” value was “did not significantly decrease”. Also, in data set [6], the “concentration that induced G0/G1 cell cycle arrest with decrease in number of cells in S phase” value was found to be 3 µM and the “effect on cell cycle progression” value is recorded as “arrest of the cell cycle in the G0/G1 phase”. In addition, in data set [3], the “concentration with statistically significant increase in percentage of tail DNA” value was at least 0.8 µM. Also, the MNi frequency entry in data set [4] is “did not significantly increase”. Also, in data set [7], the “DNA damage assessed by comet assay” value was “induce DNA damage”. The “mutagenicity/genotoxicity (chromosomal damage/genomic instability)” value in data set [8] is “not mutagenic/genotoxic”. For the same compound, the MNi formation entry in data set [9] was “did not induce MNi formation”.
As for `C#Cc1cccc(Nc2ncnc3cc(OCCOC)c(OCCOC)cc23)c1` [ERL, erlotinib], in [1], the “viability of the ZFL cells” value is listed as “did not affect cell viability” and the “cytotoxic effects in ZFL cells (MTS)” value is “no cytotoxic effect”. The “percentage of PI negative cells” value in data set [2] was “did not significantly decrease”. Moreover, in data set [6], the “concentration that induced G0/G1 cell cycle arrest with decrease in number of cells in S phase” value was determined as 40 µM and the “effect on cell cycle progression” value is recorded as “arrest of the cell cycle in the G0/G1 phase”. In addition, the MNi frequency result in data set [4] is “did not significantly increase”. For the same compound, the cytotoxicity entry in the data set on HepG2 and HepaRG cells is listed as “only slight cytotoxicity”. The reduction in viability in the data set on H520 and H1975 cells is 20%. Further, in the data set with HepG2 cells, the concentration inducing apoptosis was 25 µM and the “concentration inducing cell cycle arrest” value was 10 µM. Besides, the “concentration with cell cycle arrest” value in the data set with Huh-7 cells was 25 µM. The “DNA damage (alkaline comet assay)” value with A549 cells is on record as “did not induce DNA damage”. In data set [10], the “percentage of tail DNA” value is on record as “increases the percentage of tail DNA”. In addition, the “mutagenicity/genotoxicity (chromosomal damage/genomic instability)” value in data set [8] is given as “not mutagenic/genotoxic”. The MNi formation entry in [11] is listed as “did not induce MNi formation”. Further, in the data set on Alium cepa, the “mitotic index and cytological aberrations” value is “decreased the mitotic index and increased cytological aberrations”.

These data come from paper PMC9965539, “Adverse Toxic Effects of Tyrosine Kinase Inhibitors on Non-Target Zebrafish Liver (ZFL) Cells” (International Journal of Molecular Sciences, 2023).
